The experiment addresses T1, MALT-1 (Isoform 1) (Homo sapiens, UniProt Q9UDY8).
T1 construct: using recombinant MALT-1 (Isoform 1, aa-840) generated in house; made in house
T1 sequence (Q9UDY8 1-824): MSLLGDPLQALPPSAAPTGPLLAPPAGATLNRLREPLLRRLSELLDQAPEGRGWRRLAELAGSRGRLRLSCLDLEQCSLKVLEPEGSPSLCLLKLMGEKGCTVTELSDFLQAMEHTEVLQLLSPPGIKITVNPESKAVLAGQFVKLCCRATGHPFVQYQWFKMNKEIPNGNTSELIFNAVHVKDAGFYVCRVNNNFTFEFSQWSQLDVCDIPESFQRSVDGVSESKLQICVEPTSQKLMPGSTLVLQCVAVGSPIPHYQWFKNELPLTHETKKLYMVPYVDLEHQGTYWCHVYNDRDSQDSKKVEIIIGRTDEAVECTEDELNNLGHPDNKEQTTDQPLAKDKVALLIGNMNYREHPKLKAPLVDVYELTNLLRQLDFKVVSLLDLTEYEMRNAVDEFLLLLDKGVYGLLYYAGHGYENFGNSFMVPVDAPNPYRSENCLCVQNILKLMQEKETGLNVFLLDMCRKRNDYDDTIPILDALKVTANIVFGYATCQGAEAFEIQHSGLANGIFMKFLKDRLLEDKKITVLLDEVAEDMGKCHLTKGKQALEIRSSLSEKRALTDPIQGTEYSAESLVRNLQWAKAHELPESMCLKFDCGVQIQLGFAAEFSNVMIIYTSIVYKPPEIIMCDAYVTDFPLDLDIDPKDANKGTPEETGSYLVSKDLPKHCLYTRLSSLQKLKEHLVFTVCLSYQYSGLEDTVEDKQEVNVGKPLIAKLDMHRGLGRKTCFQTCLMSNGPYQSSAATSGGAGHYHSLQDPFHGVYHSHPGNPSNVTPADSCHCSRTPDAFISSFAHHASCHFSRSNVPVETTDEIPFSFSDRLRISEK
The experiment can be described thus: MALT-1 (Isoform 1) enzyme fluorescent biochemical assay. The conditions noted are these: for IC50: dose-response, sigmoidal curve fit, reported as groups A, B, C; for inhibition at 1 µM: test compound 1 μM, read-out: Percent Inhibition (1 μM). The protocol:
The potency of compounds to inhibit MALT-1 (Isoform 1) enzyme was tested in a Fluorescent assay using recombinant MALT-1 (Isoform 1, aa-840) generated in house. The assay buffer was 50 mM HEPES (pH 7.5), 100 mM NaCl, 10 mM DTT, 1 mM EDTA, 0.9 M sodium citrate, 0.01% CHAPS. 1.5 nM of MALT-1 enzyme was incubated with test compounds ([…]) (1% DMSO) in the presence of buffer for 30 minutes at 30° C. The protease reaction was initiated by adding […] of AC-LRSR-MAC (Peptide International, USA) substrate and incubated for 240 min. After 240 min incubation, fluorescence emission of the samples at 460 nm was measured at an excitation of 355 nm. The percent inhibition was calculated using the following formula: […]. IC50 values were determined by fitting the dose-response data to sigmoidal curve fitting equation using Graph pad prism software V8.
ND represents Not Determined.

For the molecule `O=C(Nc1ccnc(C(F)(F)F)c1)c1cnn(Cc2cccc(F)c2Cl)c1C(F)(F)F` [Compound 40, 1-(2-chloro-3-fluorobenzyl)-5-(trifluoromethyl)-N-(2-(trifluoromethyl)pyridin-4-y1)-1H-pyrazole-4-carboxamide], the IC50 lay in the range of 251 to 1000 nM. Also, under “recombinant MALT-1 1.5 nM”, the inhibition at 1 µM is 75%.
In turn, `O=C(Nc1cncnc1)c1cnn(Cc2cccc(F)c2Cl)c1C(F)(F)F` [Compound 41, 1-(2-chloro-3-fluorobenzyl)-N-(pyrimidin-5-y1)-5-(trifluoromethyl)-1H-pyrazole-4-carboxamide] came in with an IC50 of over 1000 nM. For the same molecule, where the note is “recombinant MALT-1 1.5 nM”, the inhibition at 1 µM came to 14%.
For `O=C(Nc1cncc(C(F)(F)F)c1)c1cnn(Cc2cccc(F)c2Cl)c1C(F)(F)F` [Compound 42, 1-(2-chloro-3-fluorobenzyl)-5-(trifluoromethyl)-N-(5-(trifluoromethyl)pyridin-3-yl)-1H-pyrazole-4-carboxamide] the same measures were 251 to 1000 nM and 71%.
In turn, `O=C(Nc1cc(C(F)(F)F)cnn1)c1cnn(Cc2cccc(F)c2Cl)c1C(F)(F)F` [Compound 43, 1-(2-chloro-3-fluorobenzyl)-5-(trifluoromethyl)-N-(5-(trifluoromethyl)pyridazin-3-y1)-1H-pyrazole-4-carboxamide] came in with a 50% inhibitory concentration (IC50) of over 1000 nM. Also, the inhibition at 1 µM (recombinant MALT-1 1.5 nM) turned out to be 13%.
`O=C(Nc1cc(C(F)(F)F)ncn1)c1cnn(Cc2cccc(F)c2Cl)c1C(F)(F)F` [Compound 44, 1-(2-chloro-3-fluorobenzyl)-5-(trifluoromethyl)-N-(6-(trifluoromethyl)pyrimidin-4-yl)-1H-pyrazole-4-carboxamide] had an IC50 of over 1000 nM. Besides, under “recombinant MALT-1 1.5 nM”, the inhibition at 1 µM came to 38%.
`O=C(Nc1cnc(C(=O)N2CCCC2)c(Cl)c1)c1cnn(Cc2cccc(F)c2Cl)c1C(F)(F)F` [Compound 45, 1-(2-chloro-3-fluorobenzyl)-N-(5-chloro-6-(pyrrolidine-1-carbonyl)pyridin-3-yl)-5-(trifluoromethyl)-1H-pyrazole-4-carboxamide] yielded an IC50 of over 1000 nM. Moreover, the inhibition at 1 µM (recombinant MALT-1 1.5 nM) was found to be 40%.
Molecule `O=C(Nc1cc(C(F)(F)F)ccn1)c1cnn(Cc2cccc(F)c2Cl)c1C(F)(F)F` [Compound 46, 1-(2-chloro-3-fluorobenzyl)-5-(trifluoromethyl)-N-(4-(trifluoromethyl)pyridin-2-yl)-1H-pyrazole-4-carboxamide] registered an IC50 of over 1000 nM. For the same molecule, under “recombinant MALT-1 1.5 nM”, the inhibition at 1 µM was 32%.
On to `O=C(Nc1ccnc(C(O)C(F)(F)F)c1)c1cnn(Cc2cccc(F)c2Cl)c1C(F)(F)F` (stereo not drawn) [Compound 47, 1-(2-chloro-3-fluorobenzyl)-N-(2-(2,2,2-trifluoro-1-hydroxyethyl)pyridin-4-y1)-5-(trifluoromethyl)-1H-pyrazole-4-carboxamide], for which, under “test compound 10 μM (stated in the cell), recombinant MALT-1 1.5 nM, read-out: Percent Inhibition (10 μM)”, the inhibition at 10 µM stood at 33%.
The molecule `CC(C)C(c1cccc(F)c1)n1ncc(C(=O)Nc2cnc(-n3nccn3)c(C#N)c2)c1C(F)(F)F` (stereo not drawn) [Compound 48, N-(5-cyano-6-(2H-1,2,3-triazol-2-yl)pyridin-3-yl)-1-(1-(3-fluorophenyl)-2-methylpropyl)-5-(trifluoromethyl)-1H-pyrazole-4-carboxamide] had an IC50 of over 1000 nM. The inhibition at 1 µM (recombinant MALT-1 1.5 nM) stood at 23%.
Take `CC(c1cccc(Cl)c1)n1ncc(C(=O)Nc2cnc(-n3nccn3)c(Cl)c2)c1C(F)(F)F` (stereo not drawn) [Compound 49, N-(5-chloro-6-(2H-1,2,3-triazol-2-yl)pyridin-3-yl)-1-(1-(3-chlorophenyl)ethyl)-5-(trifluoromethyl)-1H-pyrazole-4-carboxamide]: the IC50 fell in the range of 251 to 1000 nM. In addition, under “recombinant MALT-1 1.5 nM”, the inhibition at 1 µM turned out to be 88%.
The molecule `CC(c1cccc(C#N)c1)n1ncc(C(=O)Nc2cnc(-n3nccn3)c(C#N)c2)c1C(F)(F)F` (stereo not drawn) [Compound 50, N-(5-cyano-6-(2H-1,2,3-triazol-2-yl)pyridin-3-yl)-1-(1-(3-cyanophenyl)ethyl)-5-(trifluoromethyl)-1H-pyrazole-4-carboxamide] showed an IC50 of under 250 nM. Also, the inhibition at 1 µM (recombinant MALT-1 1.5 nM) amounted to 65%.
The molecule `CC(c1cccc(Cl)c1)n1ncc(C(=O)Nc2cnc(-n3nccn3)c(C#N)c2)c1C(F)(F)F` (stereo not drawn) [Compound 51, 1-(1-(3-chlorophenyl)ethyl)-N-(5-cyano-6-(2H-1,2,3-triazol-2-y1)pyridin-3-y1)-5-(trifluoromethyl)-1H-pyrazole-4-carboxamide] gave an IC50 of under 250 nM. In addition, the inhibition at 1 µM (recombinant MALT-1 1.5 nM) is 100%.
Take `Cc1c(F)cccc1C(C)n1ncc(C(=O)Nc2cnc(-n3nccn3)c(C#N)c2)c1C(F)(F)F` (stereo not drawn) [Compound 52, N-(5-cyano-6-(2H-1,2,3-triazol-2-yl)pyridin-3-yl)-1-(1-(3-fluoro-2-methylphenyl)ethyl)-5-(trifluoromethyl)-1H-pyrazole-4-carboxamide]: the IC50 was under 250 nM. The inhibition at 1 µM (recombinant MALT-1 1.5 nM) turned out to be 100%.
On to `O=C(Nc1cnnc(C(F)(F)F)c1)c1cnn(Cc2cccc(F)c2Cl)c1C(F)(F)F` [Compound 53, 1-(2-chloro-3-fluorobenzyl)-5-(trifluoromethyl)-N-(6-(trifluoromethyl)pyridazin-4-yl)-1H-pyrazole-4-carboxamide], for which the IC50 is 251 to 1000 nM. Further, the inhibition at 1 µM (recombinant MALT-1 1.5 nM) is 60%.
Consider `N#Cc1cc(NC(=O)c2cnn(Cc3cccc(F)c3Cl)c2C(F)(F)F)cnc1-c1ccoc1` [Compound 54, 1-(2-chloro-3-fluorobenzyl)-N-(5-cyano-6-(furan-3-yl)pyridin-3-y1)-5-(trifluoromethyl)-1H-pyrazole-4-carboxamide], for which the IC50 was 251 to 1000 nM. Where the note is “recombinant MALT-1 1.5 nM”, the inhibition at 1 µM came to 77%.
Molecule `N#Cc1cc(NC(=O)c2cnn(Cc3cccc(F)c3Cl)c2C(F)(F)F)cnc1-c1ccsc1` [Compound 55, 1-(2-chloro-3-fluorobenzyl)-N-(5-cyano-6-(thiophen-3-y1)pyridin-3-y1)-5-(trifluoromethyl)-1H-pyrazole-4-carboxamide] showed a half-maximal inhibitory concentration (IC50) of 251 to 1000 nM. For the same molecule, the inhibition at 1 µM (recombinant MALT-1 1.5 nM) is 63%.
Turning to `N#Cc1cc(NC(=O)c2cnn(Cc3cccc(F)c3C(F)F)c2C(F)(F)F)cnc1-n1nccn1` [Compound 56, N-(5-cyano-6-(2H-1,2,3-triazol-2-yl)pyridin-3-y1)-1-(2-(difluoromethyl)-3-fluorobenzyl)-5-(trifluoromethyl)-1H-pyrazole-4-carboxamide], the IC50 is 251 to 1000 nM. In addition, under “recombinant MALT-1 1.5 nM”, the inhibition at 1 µM is 77%.

Values taken from patent US20240132475A1, “SUBSTITUTED PYRAZOLYL COMPOUNDS AS MALT-1 INHIBITORS” (AURIGENE ONCOLOGY LIMITED, priority 2021, published 2024).
